Laboratory results taken from patent US20220395487A1, “RIG-I INNATE IMMUNE RECEPTOR ANTAGONISTS AND METHODS OF USING SAME” (YALE UNIVERSITY, priority 2019, published 2022).

Tested on: A549 cells
Assay: qRT-PCR of metabolism and stress marker genes (ACTB, GAPDH, p21, BAX) in A549 cells
Type: cell-based, human
Conditions: p21, BAX by qRT-PCR
Description: In the second assay, inhibition of RIG-I that is endogenously expressed in A549 cells was evaluated by monitoring IFN and ISG levels by qRT-PCR. A549 cells were propagated in T75 flasks containing Dulbecco's Modified Eagle Medium, DMEM, (Life Technologies) supplemented with 10% heat-inactivated fetal bovine serum (Hyclone) and Non-Essential Amino Acids (Life Technologies). For the assay, 0.5 ml of cells at 100,000 cells/ml was seeded in 24-well plates. After 24 h, DMEM growth media was replaced with media containing drug, as described above for the IFN induction assay using HEK293T cells. After 30 minutes, the cells were transfected with 1 μg of the synthetic stem-loop RNA (SLR14), using the Lipofectamine 2000 transfection reagent. After 5-6 hours, cells were harvested and total RNA was isolated using E.Z.N.A total RNA isolation kit (Omega Bio-tek), following the manufacturer's instructions. […] Each sample was analyzed in triplicate and normalized to HPRT expression. Gene expression quantification was performed according to the Livak ΔΔCt method.
These experiments were consistent with a target-specific response to the compounds. […] To evaluate interference with cell growth or viability, genes that represent markers of cell metabolism and stress response (ACTB, GAPDH, p21, BAX) were also simultaneously monitored. […]

CCC1(CC)C(=O)N=C2C1=C(OCc1ccccc1)C(=O)c1ccccc12 [RIG012, 4-Benzyloxy-3,3-diethyl-2H,3H,5H-benzo[g]indole-2,5-dione]
expression of genes involved in cell viability and metabolism: unaffected
